Measured values: publication PMC5107945, “Abscinazole-E3M, a practical inhibitor of abscisic acid 8′-hydroxylase for improving drought tolerance” (Scientific Reports, 2016)

Assays:
[1] = test system: MAPKKK18 promoter GUS reporter; assay: ABA-responsive MAPKKK18::GUS reporter analysis; format: in vivo, Arabidopsis; details: co-treatment with ABA; 5 or 25 μM, 6 h; Fig. S6
Description: MAPKKK18::GUS reporter-containing transgenic Arabidopsis[32] were grown for 6 d on agar plates containing 1/2 MS and 0.5% sucrose. Seedlings were incubated in 1/2 MS solutions containing 0.5% sucrose with chemicals for 6 h. GUS activities were detected using a reaction buffer containing 50 mM sodium phosphate buffer, 2.5 mM potassium ferrocyanide, 2.5 mM potassium ferricyanide and 1 mM X-gluc. The GUS enzyme reaction was performed at 30 °C for ~12 h. The reaction was stopped by adding 70% EtOH. Tissue-specific GUS staining was observed by microscope after bleaching the chlorophyll pigment.
Supplementary Figure 6. (−)-Abz-E3M enhanced the ABA-inducible MAPKKK18 expression level. Six-day-old seedlings of MAPKKK18::GUS reporter-containing transgenic plants were incubated in solutions containing either 5 or 25 µM of (−)-Abz-E3M

[2] = test system: Arabidopsis stomata / leaf surface temperature; assay: Thermal imaging and stomatal aperture in Arabidopsis; format: in vivo
Description: The effects of (-)-Abz-[…] were also determined relative to stomatal apertures. Arabidopsis grown in soil pots underwent moderate drought stress under the optimal growth conditions of 22 °C and 60% relative humidity. Under these growth conditions, the leaf surface temperature of the mock-treated controls was 19.5 °C, which was lower than the surrounding atmospheric temperature because of transpirational water loss (Fig. 6a,b)[30]. […] Finally, we examined the effects of (-)-Abz-[…] on drought tolerance under more practical conditions. Three-week-old Arabidopsis were sprayed with an aqueous solution containing 50 μM (-)-Abz-[…]. Water was not supplied for 12 days, and then the plants were rehydrated. […] We also tested the effects of (-)-Abz-[…] on a monocot crop, maize, to evaluate whether (-)-Abz-[…] affected stomatal movement and enhanced ABA response across plant species. […] Thus, the effects of (-)-Abz-[…] were not restricted to the model plant Arabidopsis. Figure 6 Effects of (-)-Abz-[…] on Arabidopsis drought tolerance. (a,b) Three-week-old plants were treated with 50 μM of (-)-Abz-[…] and incubated overnight at 22 °C with 60% relative humidity. Thermal images of plants were obtained using a thermal imaging camera ([…], Nippon Avionics Co., Ltd.), and the average temperatures on leaf surfaces were determined with NS9200 software (n = 5, error bars represent s.d.). Representative images are shown in (a). (c) Stomatal apertures after the application of 50 μM (-)-Abz-[…]. After an overnight incubation, plants were placed at 22 °C with ~90% relative humidity for 1 h. Stomatal images were obtained using Suzuki's universal micro-printing method. […] (d) Effects of (-)-Abz-[…] on endogenous ABA levels. Four-week old plants grown in soil pots were treated with 50 μM (-)-Abz-[…], and leaves were harvested after an overnight incubation. Values are means with s.d. (n = 6). (e) Four-week-old plants were subjected to drought stress by withholding water. […]

endogenous ABA level = assay: Endogenous ABA levels in maize; format: in vivo, Maize (cv. Gold rush); details: maize 2-week-old seedlings, roots dipped in 100 μM overnight, aerial shoot tissues

Q: How did the “ABA-inducible GUS staining (MAPKKK18::GUS)” value [1] turn out when abscinazole-E3M [(−)-6] was run?
A: enhanced the ABA-inducible GUS staining

Q: What about the Transpirational water loss ([2]; 50 μM spray, overnight) of the same substance?
A: reduced the water loss

Q: What about the Leaf surface temperature ([2]; 50 μM spray, overnight, 22 °C, 60% relative humidity) of the same substance?
A: increased leaf temperatures

Q: What about the Stomatal aperture ([2]; 50 μM, overnight then ~90% relative humidity 1 h) of the same substance?
A: led to stomatal closure

Q: What about the “Endogenous ABA levels” value (endogenous ABA level) of the same substance?
A: increased the endogenous ABA levels
